Source: patent publication US20070098649A1, “Method and composition for controlling oral pathogens” (priority 2004, published 2007)
Structures can show the parent of a compound that is named as a salt. Where two headings read alike, the source gives them in different places. Marks after values point to notes of the source that are not given here.

Tests used:
Streptococcus mutans [1] = test: Combination determination (FIC, MIC in combination); assay type: cell-based; conditions: S. mutans
Description: (§1) The alkaloids were tested in pair-wise combinations (fractional inhibitory concentrations, FIC) against all the bacteria to determine whether interactions were antagonistic (FIC>1), additive (0.5<FIC<1), or synergistic (FIC<0.5). The FIC was calculated by the following: (MIC Acombination/MIC Aalone)+(MIC Bcombination/MIC Balone). Where A represents compound 1 and B represents compound 2. […] In the case of A. actinomycetemcomitans and P. aeruginosa, CHX was used at 0.78 to 50 μg ml^−1. Berberine (B-CG and B-S) was used at concentrations 0.9 to 250 μg ml^−1. The antibacterial efficacy of berberine (1.95 to 500 μg ml^−1) was tested in combination against P. aeruginosa with CHX (0.78 to 50 μg ml^−1) (Sigma Chemicals) and the polymyxin antibiotic Col (0.04 to 25 μg ml^−1) (Sigma Chemicals). The plates were incubated for 24 hours.
CHX was diluted from left to right at 10 to 0.08 μg ml^−1 ([…] 1 to 8), berberine was diluted from top to bottom at 250 to 0.09 μg ml^−1 ([…] 1 to 8). Column 9 was the cell control, column 10 was berberine alone (250 to 0.09 μg ml^−1); and column 11 was CHX alone (10 to 0.08 μg ml^−1). Row H was the solvent control (8% DMSO, H1 to H8). Column 12 was the media blank. The dilution assay was designed such that A1 contained the highest concentration of both agents (berberine 250 μg ml^−1 and CHX 10 μg ml^−1). The final concentration of berberine in wells A2 to A8 was […]. The FIC value was calculated from well C6. FIC was calculated by: (MIC Acombination/MIC Aalone)+(MIC Bcombination/MIC Balone).

[2] = in vivo, po; cited from earlier work
[3] = rat, in vivo, iv; cited from earlier work
Streptococcus gordonii [4] = test: MIC microdilution assay; assay type: cell-based; conditions: Streptococcus gordonii, S. gordonii
Pseudomonas aeruginosa [5] = test: MIC microdilution assay; assay type: cell-based; conditions: Pseudomonas aeruginosa; P. aeruginosa; agent alone; read-out: MIC of the antimicrobial agents alone
Fusobacterium nucleatum [6] = test: MIC microdilution assay; assay type: cell-based; conditions: Fusobacterium nucleatum, F. nucleatum
Escherichia coli [7] = test: MIC microdilution assay; assay type: cell-based; conditions: E. coli, agent alone, read-out: MIC of the antimicrobial agents alone
mice [8] = conditions: cited from earlier work; for LD50: mice
Porphymonas gingivalis [9] = test: MIC microdilution assay; assay type: cell-based; conditions: Porphyromonas gingivalis, P. gingivalis
[10] = system: patients with heart conditions; conditions: human, in vivo; cited from earlier work
Streptococcus mutans [11] = test: MIC microdilution assay; assay type: cell-based; conditions: Streptococcus mutans, S. mutans
Staphylococcus aureus [12] = test: MIC microdilution assay; assay type: cell-based; conditions: S. aureus, agent alone, read-out: MIC of the antimicrobial agents alone
rabbits = conditions: s.c.; cited from earlier work
[13] = system: Actinobacillus actinomycetemcomitans; test: MIC microdilution assay; assay type: cell-based; conditions: Aggregatibacter actinomycetemcomitans
Staphylococcus aureus [14] = test: Combination determination (FIC, MIC in combination); assay type: cell-based; conditions: S. aureus; berberine (B-CG) combined with CHX, Tet or Dox; MIC of the named agent in the combination
Description: as §1

Streptococcus gordonii [15] = test: as above; assay type: cell-based; conditions: S. gordonii; berberine (B-CG) combined with CHX, Tet or Dox; MIC of the named agent in the combination
Description: as §1

[16] = system: Actinobacillus actinomycetemcomitans; test: as above; assay type: cell-based; conditions: A. actinomycetemcomitans grown under anaerobic conditions; berberine (B-CG) combined with CHX, Tet or Dox; MIC of the named agent in the combination
Description: as §1

Fusobacterium nucleatum [17] = test: as above; assay type: cell-based; conditions: F. nucleatum; berberine (B-CG) combined with CHX, Tet or Dox; MIC of the named agent in the combination
Description: as §1

Escherichia coli [18] = test: as above; assay type: cell-based; conditions: E. coli; berberine (B-CG) combined with CHX, Tet or Dox; MIC of the named agent in the combination
Description: as §1

Pseudomonas aeruginosa [19] = test: as above; assay type: cell-based; conditions: P. aeruginosa; berberine combined with CHX or Col; MIC of the named agent in the combination
Description: as §1

Porphymonas gingivalis [20] = test: as above; assay type: cell-based; conditions: P. gingivalis; berberine (B-CG) combined with CHX, Tet or Dox; MIC of the named agent in the combination
Description: as §1

rats [21] = conditions: single intraintestinal injection 10 mg/kg into the duodenum; cited from earlier work
dogs [22] = conditions: intravenous 0.1-6.0 mg/kg; cited from earlier work
rats [23] = conditions: intravenous 0.1-6.0 mg/kg; cited from earlier work
mice [24] = conditions: 15 mg/kg i.p.; cited from earlier work
albino rats = conditions: i.p. 50 mg/kg; cited from earlier work
S. pyogenes = conditions: at sub-MIC levels; cited from earlier work
dogs [25] = conditions: dog, in vivo; cited from earlier work
cats = conditions: intravenous 0.1-6.0 mg/kg; cited from earlier work
[26] = agent alone, read-out: MIC of the antimicrobial agents alone

With `COc1ccc2cc3[n+](cc2c1OC)CCc1cc2c(cc1-3)OCO2` [Berberine, 5,6-dihydro-9,10-dimethoxybenzo[g]-1,3-benzodioxolo[5,6-a]quinolizinium] as the compound, how does the “MIC of the antimicrobial agents in combination” value (shortened to “MIC of the antimicrobial agents”) (Streptococcus mutans [1]; berberine (B-CG) combined with CHX, Tet or Dox, MIC of the named agent in the combination) read?
Its value is 62.5 µg/mL.

And the “MIC alone used for the FIC” value (Streptococcus mutans [1]; same plate, 48 h)?
Its value is 125 µg/mL.

What about the “MIC in combination used for the FIC” value (Streptococcus mutans [1]; well C6, berberine (B-G) with CHX, 48 h) of the same compound?
The value was 31.25 µg/mL.

And the “Further time to clear” value [2]?
The value was “four”.

And the “Time to reach peak concentrations in plasma” value [2]?
Its value is “four”.

And the Tissue distribution [3]?
The Tissue distribution was “highest concentrations of berberine were found in the kidneys”.

And the MIC (Streptococcus gordonii [4]; [26])?
The MIC was 250 µg/mL.

And the MIC (Streptococcus gordonii [4]; Sg, read-out: MIC of Goldenseal Alkaloids Against Selected Oral Pathogens)?
Its MIC is 250 µg/mL.

And the MIC (Pseudomonas aeruginosa [5])?
Its MIC is greater than 500 µg/mL.

What about the MIC (Fusobacterium nucleatum [6]; [26]) of the same compound?
The MIC was 15.6 µg/mL.

What about the MIC (Fusobacterium nucleatum [6]; Fn, read-out: MIC of Goldenseal Alkaloids Against Selected Oral Pathogens) of the same compound?
The MIC was 15.6 µg/mL.

And the MIC (Escherichia coli [7])?
The MIC was 250 µg/mL.

And the LD50 (mice [8]; oral)?
Its LD50 is 329 mg/kg.

And the LD50 (mice [8]; s.c.)?
The LD50 was 18 mg/kg.

And the LD dose (mice [8]; mouse, in vivo, ip)?
Its LD dose is “greater than 500 mg/kg”.

And the MIC (Porphymonas gingivalis [9]; [26])?
The MIC was 23.4 µg/mL.

What about the MIC (Porphymonas gingivalis [9]; Pg, read-out: MIC of Goldenseal Alkaloids Against Selected Oral Pathogens) of the same compound?
Its MIC is 15.6 µg/mL.

And the “Adverse effect in heart failure patients” value [10]?
The value was “ventricular tachycardia in some subjects”.

And the MIC (Streptococcus mutans [11]; [26])?
The MIC was 125 µg/mL.

And the MIC (Streptococcus mutans [11]; Sm, read-out: MIC of Goldenseal Alkaloids Against Selected Oral Pathogens)?
Its MIC is 125 µg/mL.

What about the MIC (Staphylococcus aureus [12]) of the same compound?
Its MIC is 250 µg/mL.

What about the LD50 (rabbits) of the same compound?
The LD50 was 100 mg/kg.

What about the MIC ([13]; A. actinomycetemcomitans grown under anaerobic conditions, agent alone, read-out: MIC of the antimicrobial agents alone) of the same compound?
Its MIC is greater than 500 µg/mL.

And the MIC ([13]; Aa, A. actinomycetemcomitans, read-out: MIC of Goldenseal Alkaloids Against Selected Oral Pathogens)?
The MIC was greater than 500 µg/mL.

What about the “MIC of the antimicrobial agents” value (Staphylococcus aureus [14]) of the same compound?
The value was 62.5 µg/mL.

And the “MIC of the antimicrobial agents” value (Streptococcus gordonii [15])?
The value was 62.5 µg/mL.

What about the “MIC of the antimicrobial agents” value [16] of the same compound?
Its value is 250 µg/mL.

What about the “MIC of the antimicrobial agents” value (Fusobacterium nucleatum [17]) of the same compound?
Its value is 3.9 µg/mL.

What about the “MIC of the antimicrobial agents” value (Escherichia coli [18]) of the same compound?
The value was 125 µg/mL.

What about the “MIC of the antimicrobial agents” value (Pseudomonas aeruginosa [19]) of the same compound?
Its value is 250** μg ml^−1.

What about the “MIC of the antimicrobial agents” value (Porphymonas gingivalis [20]) of the same compound?
The value was 7.81 µg/mL.

Which “Effect on the volume or acidity” value (rats [21]) does the source give for `COc1ccc2cc3[n+](cc2c1OC)CCc1cc2c(cc1-3)OCO2` [berberine sulfate] here?
Its value is “no effect”.

What about the “Effect on blood pressure” value (dogs [22]) of the same compound?
Its value is “reduced the blood pressure”.

What about the “Effect on blood pressure” value (rats [23]) of the same compound?
Its value is “reduced the blood pressure”.

And the “Protection from amphetamine toxicity” value (mice [24])?
Its value is “no significant effect”.

And the “Effect on rectal temperature” value (albino rats)?
Its value is “reduced rectal temperature”.

What about the “Adherence of S. pyogenes to epithelial cells” value (S. pyogenes) of the same compound?
Its value is “inhibited the adherence”.

And the “Number of apomorphine-induced vomits” value (dogs [25])?
The value was “significantly increased”.

What about the “Effect on blood pressure” value (cats) of the same compound?
Its value is “reduced the blood pressure”.
